In BindingDB's records for doi:10.1016/j.bmc.2013.08.025 (Novartis Institutes For Biomedical Research, 2013):
Values belong to the compound of their own block, whether it stands above or below them.

Columns and labels:
[1] = Antagonist activity at CRTh2 receptor in human isolated eosinophil assessed as inhibition of DK-PGD2-induced shape change after 5 mins by flow cytometry
[2] = Antagonist activity at CRTh2 receptor in human whole blood assessed as inhibition of PGD2-induced eosinophil shape change after 5 mins by flow cytometry
[3] = Antagonist activity at CRTh2 receptor in human isolated eosinophil assessed as inhibition of eotaxin-induced shape change after 5 mins by flow cytometry
[4] = Antagonist activity at CRTh2 receptor in human isolated eosinophil assessed as inhibition of delta12-PGD2-induced shape change after 5 mins by flow cytometry
[5] = Antagonist activity at CRTh2 receptor in human isolated eosinophil assessed as inhibition of 11-Dehydro-TXB2-induced shape change after 5 mins by flow cytometry
[6] = target: T1, Prostaglandin D2 receptor 2 (Homo sapiens, UniProt Q9Y5Y4); assay: Antagonist activity at CRTh2 receptor in human isolated eosinophil assessed as inhibition of DK-PGD2-induced shape change after 5 mins by flow cytometry
T1 sequence (Q9Y5Y4 whole entry): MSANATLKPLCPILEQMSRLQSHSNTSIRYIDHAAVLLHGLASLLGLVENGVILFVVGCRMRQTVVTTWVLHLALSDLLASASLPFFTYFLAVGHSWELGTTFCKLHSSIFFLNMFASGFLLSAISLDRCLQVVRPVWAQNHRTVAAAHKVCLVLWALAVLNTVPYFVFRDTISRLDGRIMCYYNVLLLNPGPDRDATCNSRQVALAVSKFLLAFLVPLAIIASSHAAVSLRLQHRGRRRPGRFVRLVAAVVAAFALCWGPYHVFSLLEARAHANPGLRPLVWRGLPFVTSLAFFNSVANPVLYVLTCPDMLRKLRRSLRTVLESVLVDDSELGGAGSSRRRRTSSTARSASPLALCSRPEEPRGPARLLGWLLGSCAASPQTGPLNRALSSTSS

IC50 [1]: 51 nM
SMILES: Cc1c(CC(=O)O)c2cccnc2n1Cc1ccc([S+](C)[O-])cc1 (configuration not stated)

IC50 [2]: 102 nM
IC50 [3]: > 10000 nM
IC50 [4]: 4 nM
IC50 [5]: 4 nM
SMILES: Cc1c(CC(=O)O)c2cccnc2n1Cc1ccc(S(C)(=O)=O)cc1

IC50 [6]: 24 nM
SMILES: Cc1c(CC(=O)O)c2cccnc2n1Cc1ccc([N+](=O)[O-])cc1

IC50 [1]: 23 nM
SMILES: Cc1c(CC(=O)O)c2cccnc2n1Cc1ccc(Cl)cc1
